From patent US20150087037A1, “FERMENTATION PROCESS” (LanzaTech New Zealand Limited, priority 2013, published 2015)

Key:
[1] = tested on: C. autoethanogenum DSM23693; assay: Minimum 2-HIBA concentration needed to impact 2,3-butanediol production, continuous addition through the media (Example 4); format: cell-based, Clostridium autoethanogenum
Description: (§1) Fermentations with C. autoethanogenum DSM23693 were carried out in 1.5 L bioreactors at 37° C. The media was prepared according to Table 1. To achieve anaerobicity the reactor vessel was sparged with nitrogen. Prior to inoculation, the gas was switched to either steel mill gas containing H2 (3%), N2 (30%), CO (47%) and CO2 (20%) or pure gases (50% CO, 18-40% CO2, with the balance N2). The gas flow was initially set at 67 ml/min/L, increasing to 200 ml/min during mid-exponential phase, while the agitation was increased from 200 rpm to 800. Na2S was dosed into the bioreactor at 0.25 ml/hr. Once the OD600 reached 1.5, the bioreactor was switched to a continuous mode at a dilution rate of 2.0-1.6 d-l and a bacterial dilution rate of 0.9-0.6 d-l. During continuous mode gas and agitation were adjusted to 900-950 rpm and 800-900 ml/min. Na2S was increased to 1.0 ml/hr.
(§2) Liquid culture samples were taken at differing intervals over the duration of the fermentation. These samples were used to establish the optical density at 600 nm (spectrophotometer) and the level of substrates and products (high performance liquid chromatography—HPLC). HPLC was routinely used to quantify the level of acetate, ethanol and 2,3-butanediol. The input and output gas compositions were analysed using a gas chromatographer (GC), allowing measurement of CO and H2 consumption and CO2 production by the culture.
In order to understand the minimum concentrations needed to generate the same effect the concentration used was dropped to 0.1 g/L (0.96 mM) in one example and 0.05 g/L (0.48 mM) in another example. Both fermentations had gas increased to minimize acetate and maximize ethanol production. Additional CO2 was blended into the gas stream to maximize 2,3-BDO production, the gas blend used was 50% CO, 35% CO2, 1.5% H2 with N2 balance. The dilution rate and bacterial dilution rate were adjusted to 1.8 day^−1 and 0.8 day^−1 respectively. Once stable data was collected continuous 2-HIBA addition through the media was started and resulting impact on metabolite concentrations observed. In both examples the ratio before the addition of 2-HIBA was about 2:1, and the resulting impact on the Ethanol:2,3-BDO ratio was proportional to the concentration of 2-HIBA used. In the first example where 0.1 g/L (0.96 mM) was used the ratio improved to 1:1 and when the concentration was halved (in the second example) the response was an improvement in the ratio to only 1.5:1.
In two further experiments concentrations from 0.01 g/L to 0.1 g/L (0.096, 0.24, 0.48, 0.72, 0.96 mM) were added and the impact on the metabolites observed. Again the fermentations had gas increased to minimize acetate and maximize ethanol production with CO2 blended into the gas stream to maximize 2,3-BDO production. The dilution rate and bacterial dilution rate were adjusted to 1.8 day^−1 and 0.9 day^−1 respectively. The gas blend used was 42% CO, 35% CO2, 1.5% H2 with N2 balance.

LZ1561 = assay: Differential gene expression analysis before and after 2-HIBA addition (Example 6); format: cell-based, Clostridium autoethanogenum
Excerpt: In order to understand the impact of 2-HIBA on the metabolism of LZ1561 samples were taken for gene expression analysis. A reactor was started up as a batch and after 1 day was turned continuous at a D=1.4 day^−1. Gas flow and agitation were adjusted in order to minimise acetate and maximise ethanol and 2,3-BDO production. By day 7 the Ethanol:2,3-BDO ratio was less than 5:1 and the gas had reached target CO uptake of between 5-6 mol/L/day. On day 9.6 a sample was taken for gene expression analysis representing stable data without 2-HIBA. […] The results for this analysis indicated very clearly that 2-HIBA interacts with the Branch Chain Amino Acid biosynthesis pathway (BCAA). From the results a mode of action of 2-HIBA was proposed and this is illustrated and described in FIG. 11.

[2] = tested on: C. autoethanogenum DSM23693; assay: Single reactor fermentation optimised for 2,3-BDO production, single 2-HIBA addition (Example 1); format: cell-based, Clostridium autoethanogenum
Description: as §1, §2
The impacts of 2-HIBA were investigated on a single reactor system which had been optimised for 2,3-BDO production. This was done to ascertain the impact that this chemical would have on a high performance system and obtain information on suitable concentrations that would not interfere with overall fermentation stability.
The 2,3-BDO concentration increased from 6 g/L to 12 g/L dropping the ratio from 4:1 to as low as 1.4:1. […] The concentration of 2-HIBA was monitored in the reactor liquid outflow. […] The 2-HIBA washes out of the fermenter according to the bacterial dilution rate.

[3] = tested on: Ketol-acid reductoisomerase IlvC; assay: Inhibition of ketol-acid reductoisomerase; format: biochemical, Clostridium autoethanogenum; settings: mode of action proposed from gene expression and BCAA data
Excerpt: The addition of 2-HIBA impacts the metabolism of Clostridium autoethanogenum. […] In native systems the expression and activity of Acetolcatate synthase IlvBN is down regulated by branched chain amino acid synthesis. The addition of 2-HIBA to the fermentation inhibits Ketol-acid recuctoisomerase IlvC, branch chained amino acid biosynthesis, which results in a decrease in the concentration of valine, isoleucine and leucine. As a result, feedback inhibition of the IlvBN enzyme by valine, isoleucine and leucine is removed. This causes an increase in acetolactate production. An increase in the acetolactate pool leads to an overflow of carbon to 2,3-butanediol. The conversion of acetolactate and acetoin to 2,3-BDO are not rate limited, and conversion to 2,3-BDO freely occurs without the need to further up regulate enzymes responsible for the conversion of acetolactate to acetoin and/or the conversion of acetoin to 2,3-BDO.
Ketol-acid reductoisomerase is inhibited by the presence of 2-HIBA. It is considered that other compounds having similar structural characteristics to 2-HIBA and the substrates that the enzyme works on (acetolactate. 2-oxo-3-hydroxyisovalerate and 2,3-dihydroxy-3-methylbutanoate) would have a similar effect on Ketol acid reductoisomerase. […]

[4] = 0 mM vs 4.8 mM 2-HIBA addition, down-regulated
[5] = 0 mM vs 4.8 mM 2-HIBA addition, up-regulated

With `CC(C)(O)C(=O)O` [2-HIBA, 2-hydroxyisobutyric acid] as the compound, how does the “lowest concentration that impacts on the production of 2,3-butanediol” value ([1]; 0.01 g/L to 0.1 g/L tested, 0.01 g/L = 0.096 mM) read?
The value was 0.01 g/L.

What about the CO uptake ([1]; Expt 1: 0.96 mM/day HIBA addition, before 9.4) of the same compound?
Its CO uptake is 9.8 mol/L/day.

And the “2,3-BDO” value ([1]; Expt 1: 0.96 mM/day HIBA addition, before 9.67)?
The value was 16.35 g/L.

And the Biomass ([1]; Expt 1: 0.96 mM/day HIBA addition, before 10.7)?
The Biomass was 9.83 g/L.

And the Ethanol ([1]; Expt 1: 0.96 mM/day HIBA addition, before 20.33)?
Its Ethanol is 17.05 g/L.

And the CO uptake ([1]; Expt 2: 0.48 mM/day HIBA addition, before 8.2)?
The CO uptake was 8 mol/L/day.

And the “2,3-BDO” value ([1]; Expt 2: 0.48 mM/day HIBA addition, before 8.42)?
Its value is 10.56 g/L.

What about the Biomass ([1]; Expt 2: 0.48 mM/day HIBA addition, before 12.69) of the same compound?
Its Biomass is 12.14 g/L.

And the Ethanol ([1]; Expt 2: 0.48 mM/day HIBA addition, before 18.73)?
The Ethanol was 15.56 g/L.

And the “drop of Ethanol:2,3-BDO ratio” value ([1]; for every 0.05 g/L (0.48 mM) added to a stable fermentation, data of four examples, FIG. 8)?
The value was 0.5 units.

And the “log2 fold_change, or1907 Indole-3-glycerol phosphate synthase CDS” value (LZ1561; [4])?
Its value is −3.042.

What about the “log2 fold_change, or2161 Alcohol dehydrogenase CDS” value (LZ1561; [4]) of the same compound?
The value was −3.476.

And the “log2 fold_change, or2739 Glutamate synthase (NADPH) CDS” value (LZ1561; [4])?
The value was −3.498.

And the “log2 fold_change, or2997 Glycerol dehydrogenase CDS” value (LZ1561; [4])?
The value was −4.924.

And the “log2 fold_change, or3075 Glucarate dehydratase CDS” value (LZ1561; [4])?
The value was −4.084.

And the “log2 fold_change, or3076 hypothetical protein CDS” value (LZ1561; [4])?
The value was −3.469.

What about the “log2 fold_change, or3079 Methylglyoxal reductase (NADPH-dependent) CDS” value (LZ1561; [4]) of the same compound?
The value was −4.02.

What about the “log2 fold_change, or3080 transcriptional regulator, CdaR CDS” value (LZ1561; [4]) of the same compound?
Its value is −3.947.

What about the “log2 fold_change, or1190 2-isopropylmalate synthase CDS” value (LZ1561; [5]) of the same compound?
Its value is 3.63.

And the “log2 fold_change, or1191 3-isopropylmalate dehydratase large subunit CDS” value (LZ1561; [5])?
The value was 3.55.

What about the “log2 fold_change, or1193 3-isopropylmalate dehydrogenase CDS” value (LZ1561; [5]) of the same compound?
Its value is 3.289.

What about the “log2 fold_change, or2387 Ketol-acid reductoisomerase CDS” value (LZ1561; [5]) of the same compound?
The value was 3.202.

And the “log2 fold_change, or2388 Dihydroxy-acid dehydratase CDS” value (LZ1561; [5])?
Its value is 2.901.

What about the “log2 fold_change, or2389 acetolactate synthase, large subunit, biosynthetic type CDS” value (LZ1561; [5]) of the same compound?
The value was 3.255.

And the “log2 fold_change, or2390 acetolactate synthase, small subunit CDS” value (LZ1561; [5])?
The value was 3.237.

What about the “log2 fold_change, or2461 General substrate transporter CDS” value (LZ1561; [5]) of the same compound?
The value was 2.867.

And the response in metabolites (LZ1561; 0.5 g/L (4.8 mM) 2-HIBA added on day 10.78)?
The response in metabolites was “decreasing acetate, ethanol and biomass with increasing 2,3-BDO”.

And the Biomass (LZ1561; Day 12.8-14.0, stable 0.5 g/L HIBA addition, before 4.7)?
Its Biomass is 3.45 g/L.

And the CO uptake (LZ1561; Day 12.8-14.0, stable 0.5 g/L HIBA addition, before 5.7)?
Its CO uptake is 5.1 mol/L/day.

And the “impact on gas uptake” value ([2]; 0.5 g/L (4.8 mM) 2-HIBA)?
The value was “not to have a detrimental impact on gas uptake”.

And the “metabolite profile of the fermentation” value ([2]; 0.5 g/L (4.8 mM) 2-HIBA, FIG. 1)?
The value was “increasing the production of 2,3-butanediol whilst decreasing the production of ethanol, acetate and biomass”.

What about the “2,3-BDO concentration” value ([2]; after 0.5 g/L (4.8 mM) 2-HIBA added on day 7.95, increased from 6 g/L) of the same compound?
Its value is 12 g/L.

And the “overall washout rate of 2-HIBA” value ([2]; matched the bacterial dilution rate)?
The value was 0.7 day⁻¹.

What about the “initial washout rate of 2-HIBA” value ([2]; similar to the dilution rate) of the same compound?
The value was about 1.8 day⁻¹.

What about the “effect on Ketol-acid reductoisomerase” value [3] of the same compound?
Its value is “inhibited”.
